Reference: paper PMC5824344 (ACS Chemical Biology, 2017)
pIC50: −log10 of the molar value. Entries after “also recorded” stand apart in the source; their conditions may differ.

Assays:
[1] = target: T1, Rat intestinal cellobiase (Rattus norvegicus, UniProt Q02401); assay: Inhibition of rat intestinal cellobiase (β-glucosidase; natural substrate, glucose release); assay type: biochemical; details: read-out: inhibition of intestinal cellobiase at the maximum tested concentration
T1 sequence (Q02401 868-1928): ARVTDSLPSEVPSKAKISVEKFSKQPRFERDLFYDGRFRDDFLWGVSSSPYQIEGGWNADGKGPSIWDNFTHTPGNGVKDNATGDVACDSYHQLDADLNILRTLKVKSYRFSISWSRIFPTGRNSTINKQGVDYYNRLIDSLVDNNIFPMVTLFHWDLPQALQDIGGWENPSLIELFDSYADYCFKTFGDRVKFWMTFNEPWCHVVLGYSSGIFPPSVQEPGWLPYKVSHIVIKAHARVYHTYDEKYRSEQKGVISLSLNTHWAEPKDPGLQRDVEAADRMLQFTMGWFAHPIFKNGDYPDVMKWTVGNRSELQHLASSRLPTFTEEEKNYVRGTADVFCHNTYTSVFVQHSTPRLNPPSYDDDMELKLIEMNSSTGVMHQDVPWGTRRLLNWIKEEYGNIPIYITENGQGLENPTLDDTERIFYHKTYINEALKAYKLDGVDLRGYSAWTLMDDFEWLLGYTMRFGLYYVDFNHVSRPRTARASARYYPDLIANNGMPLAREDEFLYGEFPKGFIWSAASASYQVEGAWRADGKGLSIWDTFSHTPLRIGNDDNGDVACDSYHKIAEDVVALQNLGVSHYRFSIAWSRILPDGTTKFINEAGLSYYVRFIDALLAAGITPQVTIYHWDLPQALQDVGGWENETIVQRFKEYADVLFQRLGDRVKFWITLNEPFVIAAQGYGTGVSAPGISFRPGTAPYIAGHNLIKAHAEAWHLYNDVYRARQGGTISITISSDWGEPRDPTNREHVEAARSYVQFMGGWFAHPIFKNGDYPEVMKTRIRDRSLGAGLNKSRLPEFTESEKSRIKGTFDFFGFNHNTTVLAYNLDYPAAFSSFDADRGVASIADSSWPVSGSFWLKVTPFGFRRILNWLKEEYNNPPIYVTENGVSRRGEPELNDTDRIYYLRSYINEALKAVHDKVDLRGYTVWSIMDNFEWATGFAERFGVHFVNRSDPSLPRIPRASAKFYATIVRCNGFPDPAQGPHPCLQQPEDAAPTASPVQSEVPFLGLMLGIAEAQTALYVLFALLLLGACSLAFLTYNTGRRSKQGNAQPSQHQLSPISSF

[2] = system: HCV (JFH-1) in Huh7.5 cells; assay: HCV antiviral assay in Huh7.5 cells (infectious titer by TCID50 assay); assay type: cell-based, hepatitis C virus; details: MOI 2, 96 h, titration of 4 or 50 µm of 3
Protocol: Supplemental Figure 3: Antiviral activity of 4 in human hepatoma Huh7.5 cell line.
(A) Huh7.5 cells were infected with DENV (serotype 2, strain 16681, multiplicity of infection = 0.1) and treated with a titration of ToP-DNJ 4 or 50 µm of tocopherol 3 for 48 h. Infectious virus titer was measured by plaque assay on LLC-MK2 cells. Counts were normalized to 100% for untreated samples.
DENV eﬀect at the concentrations tested. (B) Huh7.5 cells were infected with HCV (JFH-1, multiplicity of infection = 2) and treated with a titration of ToP-DNJ 4 or 50 µm tocopherol 3 for 96 h. Infectious virus titer was measured by TCID50 assay on […]
tested. In both panels, each data point represent the mean of triplicates, with error bars showing standard error of the mean (GraphPad Prism). […]
Huh7.5 cells were seeded in a 96-well plate at a density of 5× 10^3 cells/well in 100 µL growth media. […] The supernatant was harvested, and infectious viral titre assessed immediately in the TCID50 assay.
Huh7.5 cells were seeded in a 96-well plate at a density of 2× 10^4 cells/well in 100 µL of growth media and incubated for 18 h. The supernatants to be evaluated were diluted 1:10 in growth media, and 7 serial half-log10 dilutions were subsequently prepared in the same media. […]
each well was scored as either positive (≥ 5 stained cells) or negative. TCID50 values were calculated according to the method of Reed and Muench.8 […]

[3] = cited from earlier work
[4] = system: DENV2 strain 16681 in primary human MDMΦ; set-up: method as in PMID 23070155; details: MDMΦ cells, same system; read-out: IC50 for DENV inhibition; cited from earlier work

SMILES | inhibition at 50 µM [1] [%] | anti-HCV effect (infectious virus titer) [2] | plasma half-life [3] [h] | tissue in which compound is found in the highest amounts ([3]; renally excreted) | pIC50 [4]
Cc1c(C)c2c(c(C)c1OCCCCCN1CC(O)C(O)C(O)C1CO)CCC(C)(CCCC(C)CCCC(C)CCCC(C)C)O2 (centres unmarked) [Compound 4, 5′-tocopheroxypentyl-DNJ] | < 50 | neither an anti-DENV nor anti-HCV effect was observed; also recorded: Neither 4 nor 3 showed an anti-HCV eﬀect |  |  | 
CCCCN1CC(O)C(O)C(O)C1CO [Compound 2, N-butyl-D-1-deoxynojirimycin, reference compound] |  |  | 5 | highest amounts in the kidneys and bladder | 5.22
